From patent US8906852B2 (MethylGene Inc., priority 2010, dated 2014)

Each compound was assayed against T1, VEGFR/KDR (Homo sapiens, UniProt P35968) (assay: VEGFR/KDR kinase inhibition, DELFIA assay). Details: ATP 0.6 uM (2x Km), enzyme 5 nM.
T1 construct: made in house; host or cells: Sf9 cells (Spodoptera frugiperda), baculovirus
Format: biochemical
Outline: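 Enzyme (5 nM) pre-incubated 4 min on ice with inhibitor and Mg-ATP (0.6 uM, 2× Km), then reacted 10-30 min at 30° C on immobilized poly(Glu4,Tyr). EDTA-quenched phosphotyrosine detected with Europium-labeled antibody by time-resolved fluorescence; IC50 from concentration series.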

T1 sequence (P35968 806-1356): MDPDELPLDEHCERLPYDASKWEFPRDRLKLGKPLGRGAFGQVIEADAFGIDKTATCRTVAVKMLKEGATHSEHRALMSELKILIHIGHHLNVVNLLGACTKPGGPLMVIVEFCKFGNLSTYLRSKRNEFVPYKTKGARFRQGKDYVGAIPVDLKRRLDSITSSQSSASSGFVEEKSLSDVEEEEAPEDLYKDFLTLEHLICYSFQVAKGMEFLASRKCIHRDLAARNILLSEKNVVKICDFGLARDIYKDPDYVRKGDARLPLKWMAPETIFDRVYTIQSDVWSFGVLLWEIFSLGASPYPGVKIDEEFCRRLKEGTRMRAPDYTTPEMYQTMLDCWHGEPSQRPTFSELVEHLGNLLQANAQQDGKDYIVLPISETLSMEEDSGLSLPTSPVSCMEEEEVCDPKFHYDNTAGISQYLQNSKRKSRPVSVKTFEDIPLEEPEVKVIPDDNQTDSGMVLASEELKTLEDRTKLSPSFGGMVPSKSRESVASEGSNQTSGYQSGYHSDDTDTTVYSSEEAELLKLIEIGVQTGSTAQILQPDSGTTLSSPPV

| Compound | IC50 [nM] |
| --- | --- |
| CN(C)CCNC(=O)C1CCCN(Cc2ccc(-c3cc4nccc(Oc5ccc(NC(=O)NC6CC6)cc5F)c4s3)nc2)C1 (stereo not shown) [Compound 491, 1-((6-(7-(4-(3-cyclopropylureido)-2-fluorophenoxy)thieno[3,2-b]pyridin-2-yl)pyridin-3-yl)methyl)-N-(2-(dimethylamino)ethyl)piperidine-3-carboxamide] | < 50 |
| CN1CCN(C(=O)C2CCCN(Cc3ccc(-c4cc5nccc(Oc6ccc(NC(=O)NC7CC7)cc6F)c5s4)nc3)C2)CC1 (stereo not shown) [Compound 493, 1-cyclopropyl-3-(3-fluoro-4-(2-(5-((3-(4-methylpiperazine-1-carbonyl)piperidin-1-yl)methyl)pyridin-2-yl)thieno[3,2-b]pyridin-7-yloxy)phenyl)urea] | < 50 |
| CN(CCO)C(=O)C1CCCN(Cc2ccc(-c3cc4nccc(Oc5ccc(NC(=O)NC6CC6)cc5F)c4s3)nc2)C1 (stereo not shown) [Compound 494, 1-((6-(7-(4-(3-cyclopropylureido)-2-fluorophenoxy)thieno[3,2-b]pyridin-2-yl)pyridin-3-yl)methyl)-N-(2-hydroxyethyl)-N-methylpiperidine-3-carboxamide] | < 50 |
| N[C@H]1CCN(Cc2ccc(-c3cc4nccc(Oc5ccc(NC(=O)NC6CC6)cc5F)c4s3)nc2)C1 [Compound 495, (S)-1-(4-(2-(5-((3-aminopyrrolidin-1-yl)methyl)pyridin-2-yl)thieno[3,2-b]-pyridin-7-yloxy)-3-fluorophenyl)-3-cyclopropylurea] | < 50 |
| CC1(C)CN(Cc2ccc(-c3cc4nccc(Oc5ccc(NC(=O)NC6CC6)cc5F)c4s3)nc2)CCN1 [Compound 496, 1-cyclopropyl-3-(4-(2-(5-((3,3-dimethylpiperazin-1-yl)methyl)pyridin-2-yl)thieno[3,2-b]pyridin-7-yloxy)-3-fluorophenyl)urea] | < 50 |
| CC1(C)CN(Cc2ccc(-c3cc4nccc(Oc5ccc(NC(=O)NC6CC6)cc5F)c4s3)nc2)CCN1C(=O)CO [Compound 498, 1-cyclopropyl-3-(3-fluoro-4-(2-(5-((4-(2-hydroxyacetyl)-3,3-dimethylpiperazin-1-yl)methyl)pyridin-2-yl)thieno[3,2-b]pyridin-7-yloxy)phenyl)urea] | < 50 |
| C=CC(=O)N1CCN(Cc2ccc(-c3cc4nccc(Oc5ccc(NC(=O)NC6CC6)cc5F)c4s3)nc2)CC1(C)C [Compound 499, 1-(4-(2-(5-((4-acryloyl-3,3-dimethylpiperazin-1-yl)methyl)pyridin-2-yl)thieno[3,2-b]pyridin-7-yloxy)-3-fluorophenyl)-3-cyclopropylurea] | < 50 |
| CC1(C)CN(Cc2ccc(-c3cc4nccc(Oc5ccc(NC(=O)NC6CC6)cc5F)c4s3)nc2)CCN1CCO [Compound 500, 1-cyclopropyl-3-(3-fluoro-4-(2-(5-((4-(2-hydroxyethyl)-3,3-dimethylpiperazin-1-yl)methyl)pyridin-2-yl)thieno[3,2-b]pyridin-7-yloxy)phenyl)urea] | < 50 |
| COCCNCc1ccc(-c2cc3nccc(Oc4ccc(NC(=S)NC5CC5)cc4F)c3s2)nc1 [Compound 502, 1-Cyclopropyl-3-(3-fluoro-4-(2-(5-((2-methoxyethylamino)methyl)pyridin-2-yl)thieno[3,2-b]pyridin-7-yloxy)phenyl)thiourea] | < 50 |
| COCCN(Cc1ccc(-c2cc3nccc(Oc4ccc(NC(=S)NC5CC5)cc4F)c3s2)nc1)C(C)=O [Compound 504, N-((6-(7-(4-(3-cyclopropylthioureido)-2-fluorophenoxy)thieno[3,2-b]pyridin-2-yl)pyridin-3-yl)methyl)-N-(2-methoxyethyl)acetamide] | < 50 |
| COCCN(Cc1ccc(-c2cc3nccc(Oc4ccc(NC(=S)NC5CC5)cc4F)c3s2)nc1)C(=O)CO [Compound 505, N-((6-(7-(4-(3-cyclopropylthioureido)-2-fluorophenoxy)thieno[3,2-b]pyridin-2-yl)pyridin-3-yl)methyl)-2-hydroxy-N-(2-methoxyethyl)acetamide] | 50 to 100 |
| COC(=O)CCN1CCN(Cc2ccc(-c3cc4nccc(Oc5ccc(NC(=O)NC6CC6)cc5F)c4s3)nc2)CC1 [Compound 507, methyl 3-(4-((6-(7-(4-(3-cyclopropylureido)-2-fluorophenoxy)thieno[3,2-b]pyridin-2-yl)pyridin-3-yl)methyl)piperazin-1-yl)propanoate] | < 50 |
| COC(=O)CC(C)N1CCN(Cc2ccc(-c3cc4nccc(Oc5ccc(NC(=O)NC6CC6)cc5F)c4s3)nc2)CC1 (stereo not shown) [Compound 508, methyl 3-(4-((6-(7-(4-(3-cyclopropylureido)-2-fluorophenoxy)thieno[3,2-b]pyridin-2-yl)pyridin-3-yl)methyl)piperazin-1-yl)butanoate] | < 50 |
| CCOC(=O)CC(N1CCN(Cc2ccc(-c3cc4nccc(Oc5ccc(NC(=O)NC6CC6)cc5F)c4s3)nc2)CC1)C(F)(F)F (stereo not shown) [Compound 509, ethyl 3-(4-((6-(7-(4-(3-cyclopropylureido)-2-fluorophenoxy)thieno[3,2-b]pyridin-2-yl)pyridin-3-yl)methyl)piperazin-1-yl)-4,4,4-trifluorobutanoate] | < 50 |
| O=C(O)CC(=O)N1CCN(Cc2ccc(-c3cc4nccc(Oc5ccc(NC(=O)NC6CC6)cc5F)c4s3)nc2)CC1 [Compound 510, 3-(4-((6-(7-(4-(3-cyclopropylureido)-2-fluorophenoxy)thieno[3,2-b]pyridin-2-yl)pyridin-3-yl)methyl)piperazin-1-yl)-3-oxopropanoic acid] | < 50 |
| O=C(O)CC(N1CCN(Cc2ccc(-c3cc4nccc(Oc5ccc(NC(=O)NC6CC6)cc5F)c4s3)nc2)CC1)C(F)(F)F (stereo not shown) [Compound 511, 3-(4-((6-(7-(4-(3-cyclopropylureido)-2-fluorophenoxy)thieno[3,2-b]pyridin-2-yl)pyridin-yl)methyl)piperazin-1-yl)-4,4,4-trifluorobutanoic acid] | < 50 |
| CCOC(=O)CC(C)N1CCN(Cc2ccc(-c3cc4nccc(Oc5ccc(NC(=O)NC6CC6)cc5F)c4s3)nc2)CC1 (stereo not shown) [Compound 515, Ethyl 3-(4-((6-(7-(4-(3-cyclopropylureido)-2-fluorophenoxy)thieno[3,2-b]pyridin-2-yl)pyridin-3-yl)methyl)piperazin-1-yl)butanoate] | < 50 |
| CC(CC(=O)O)N1CCN(Cc2ccc(-c3cc4nccc(Oc5ccc(NC(=O)NC6CC6)cc5F)c4s3)nc2)CC1 (stereo not shown) [Compound 516] | < 50 |
| O=C(O)CCCCN1CCN(Cc2ccc(-c3cc4nccc(Oc5ccc(NC(=O)NC6CC6)cc5F)c4s3)nc2)CC1 [Compound 518, 5-(4-((6-(7-(4-(3-cyclopropylureido)-2-fluorophenoxy)thieno[3,2-b]pyridin-2-yl)pyridin-3-yl)methyl)piperazin-1-yl)pentanoic acid] | < 50 |
| O=C(O)CCCN1CCN(Cc2ccc(-c3cc4nccc(Oc5ccc(NC(=O)NC6CC6)cc5F)c4s3)nc2)CC1 [Compound 519, 4-(4-((6-(7-(4-(3-cyclopropylureido)-2-fluorophenoxy)thieno[3,2-b]pyridin-2-yl)pyridin-3-yl)methyl)piperazin-1-yl)butanoic acid] | < 50 |

The next lines start with the values.

| IC50 [nM] | Compound |
| --- | --- |
| < 50 | O=C(Nc1ccc(Oc2ccnc3cc(-c4ccc(CN5CCCC(C(=O)NCCO)C5)cn4)sc23)c(F)c1)NC1CC1 (stereo not shown) [Compound 492, 1-((6-(7-(4-(3-cyclopropylureido)-2-fluorophenoxy)thieno[3,2-b]pyridin-2-yl)pyridin-3-yl)methyl)-N-(2-hydroxyethyl)piperidine-3-carboxamide] |
| < 50 | O=C(CO)N[C@H]1CCN(Cc2ccc(-c3cc4nccc(Oc5ccc(NC(=O)NC6CC6)cc5F)c4s3)nc2)C1 [Compound 497, (S)-N-(1-((6-(7-(4-(3-cyclopropylureido)-2-fluorophenoxy)thieno[3,2-b]pyridin-2-yl)-pyridin-3-yl)methyl)pyrrolidin-3-yl)-2-hydroxyacetamide] |
| 50 to 100 | CCNC(=O)N(CCOC)Cc1ccc(-c2cc3nccc(Oc4ccc(NC(=S)NC5CC5)cc4F)c3s2)nc1 [Compound 503, 1-((6-(7-(4-(3-cyclopropylthioureido)-2-fluorophenoxy)thieno[3,2-b]pyridin-2-yl)pyridin-3-yl)methyl)-3-ethyl-1-(2-methoxyethyl)urea] |
| < 50 | COC(=O)CC(=O)N1CCN(Cc2ccc(-c3cc4nccc(Oc5ccc(NC(=O)NC6CC6)cc5F)c4s3)nc2)CC1 [Compound 506, methyl 3-(4-((6-(7-(4-(3-cyclopropylureido)-2-fluorophenoxy)thieno[3,2-b]pyridin-2-yl)pyridin-3-yl)methyl)piperazin-1-yl)-3-oxopropanoate] |
| < 50 | O=C(Nc1ccc(Oc2ccnc3cc(-c4ccc(CN5CCN(CCc6nnn[nH]6)CC5)cn4)sc23)c(F)c1)NC1CC1 [Compound 512, 1-(4-(2-(5-((4-(2-(1H-tetrazol-5-yl)ethyl)piperazin-1-yl)methyl)pyridin-2-yl)thieno[3,2-b]pyridin-7-yloxy)-3-fluorophenyl)-3-cyclopropylurea] |
| < 50 | O=C(O)CCCCCN1CCN(Cc2ccc(-c3cc4nccc(Oc5ccc(NC(=O)NC6CC6)cc5F)c4s3)nc2)CC1 [Compound 520, 6-(4-((6-(7-(4-(3-cyclopropylureido)-2-fluorophenoxy)thieno[3,2-b]pyridin-2-yl)pyridin-3-yl)methyl)piperazin-1-yl)hexanoic acid] |
| < 50 | O=C(O)CCCCCCN1CCN(Cc2ccc(-c3cc4nccc(Oc5ccc(NC(=O)NC6CC6)cc5F)c4s3)nc2)CC1 [Compound 521, 7-(4-((6-(7-(4-(3-cyclopropylureido)-2-fluorophenoxy)thieno[3,2-b]pyridin-2-yl)pyridin-3-yl)methyl)piperazin-1-yl)heptanoic acid] |
| < 50 | O=C(O)CCCCCCCN1CCN(Cc2ccc(-c3cc4nccc(Oc5ccc(NC(=O)NC6CC6)cc5F)c4s3)nc2)CC1 [Compound 522, 8-(4-((6-(7-(4-(3-cyclopropylureido)-2-fluorophenoxy)thieno[3,2-b]pyridin-2-yl)pyridin-3-yl)methyl)piperazin-1-yl)octanoic acid] |
